In patent US20200206172A1, “COMPOSITIONS AND METHODS FOR TREATING NEURODEGENERATIVE DISORDERS” (GNT Pharma Co., Ltd., priority 2018, published 2020):
Where “and” joins values, the source holds several entries; their conditions need not be identical. Equal entries are not always repeated.

Tests used:
dogs with CDS [1] = assay: CCDR scale questionnaire in companion dogs with CDS, randomized blind placebo-controlled clinical trial; assay type: in vivo, dog; design: key to CCDR score, 4 weeks / CCDR score, 8 weeks / CCDR score, 12 weeks / CCDR score, 16 weeks (discontinuation) / CCDR score, 20 weeks (discontinuation) / CCDR score, 12 weeks (discontinuation): CCDR scale points (13 items); ≥50 indicates CDS
Excerpt: (§1) The companion animals tested in the study were 22 elderly dogs (12-19 years of age) diagnosed with CDS. Each dog enrolled for the present study met the following criteria: body weight <12 kg (regardless of gender), dogs which had lived with the owner for at least 90 days, dogs which were able to take oral medicine, dogs with CDS diagnosed by investigator (canine cognitive dysfunction rating (CCDR) scale ≥50 points) and dogs with informed consent of their owners. Dogs with a pregnancy or lactating, with hypersensitivity against salicylic acid derivatives, or with the underlying disease (i.e. renal dysfunction, visual loss, heart failure, or renal failure) were excluded. In addition, dogs which had participated any other clinical trials within 90 days or dogs which had not only CDS but also other neurodegenerative diseases were excluded.
(§2) This study was a randomized, blind, placebo-controlled clinical trial to investigate the efficacy and safety of Compound 2 in dogs with CDS. To investigate the efficacy of Compound 2, two questionnaires were evaluated: CCDR scale and canine dementia scale (CADES). To measure the safety of Compound 2, not only the occurrence of adverse events was investigated but also the vital signs, physical examination, and blood tests were performed in the dogs. Compound 2 was prescribed for oral administration of 10 mg/kg once-daily dosing for 8 weeks. Subjects 3 and 4 received Compound 2 additionally for 4 weeks with approval of the principal investigator. Instead of Compound 2, subjects 18-22 received placebo for 8 weeks. In this study, we allowed the dogs to be administered Compound 2 in various ways: mix with dietary supplement (subjects 1 and 3), mix with food (subjects 2 and 6), dissolve in water (subject 4), or capsule with water (subject 5), or chewable tablet with water (subjects 7-22).
(§3) Rating scales are essential tools for CDS diagnosis, staging, assessment, and careful monitoring of the disease symptoms as well as for evaluation of the efficacy of therapeutic strategies. Several rating scales have been developed during the last decade e.g. CCDR scale. To assess the severity of CDS in this study, two questionnaires (CCDR scale and CADES) were performed before and after oral administration of Compound 2 by a veterinarian. Questionnaires include a broad range of items measuring appetite, drinking behavior, barking, elimination behavior, day/night sleeping pattern, aimless behavior, adaptive capabilities, social behavior, perceptual ability, disorientation, and memory.
CCDR scale consists of 13 items based on CDS symptoms (Table 2). The 13 kinds of behaviors included various problems related to orientation (staring blankly, getting lost in the home), memory (lack of recognition of owners, house-soiling), apathy (reduced time spent active, avoiding contact with owners), impaired olfaction (difficulty finding food), and locomotion. These problems compromise both the dog's quality of life and the dog-owner bond. Scores ≥50 on the CCDR are indicative of CDS in the aged dogs (12-19 years of age). In this study, we compared the CCDR scores before and after administration of Compound 2 in dogs with CDS.

dogs with CDS [2] = assay: Canine dementia scale (CADES) questionnaire in companion dogs with CDS; assay type: in vivo, dog
Excerpt: as §1, §2, §3
To ensure and confirm the CCDR scale, we used an additional questionnaire, CADES which contains 17 items distributed into four domains, related to changes in dogs' behaviors: spatial orientation, social interaction, sleep-wake cycle, and house soiling (Table 6). It can be classified according to various stages of cognitive impairment: mild, moderate, and severe cognitive impairment. It is known well that CADES is also suitable for long-term assessment of the progression of cognitive impairment in canine, and potentially as efficacy readout for treatments.

[3] = Pharmacokinetics after oral administration in mice; assay type: in vivo; conditions: mouse, plasma, 2.5 mg/kg
[4] = Pharmacokinetic study in beagle dogs; assay type: in vivo; conditions: dog, plasma, oral, 20 mg/kg/day
Experimental: Based upon the safety and pharmacokinetic profile of Compound 2, a dose of 10 mg/kg/day was chosen to investigate safety and efficacy of Compound 2 in canine CDS.

in vivo = assay: in vivo; design: species or system beagle dogs; conditions: both sexes, beagle, dog, po
Experimental: The systemic toxic potential of Compound 2 in beagle dogs was investigated in Huntington Life Science, a large non-clinical contract research organization in Cambridgeshire, England. Three groups each comprising three males and three females, received Compound 2 at doses of 20, 65, or 200 mg/kg/day for 13 weeks. […] Consequently, 200 mg/kg/day was considered the no-observed-adverse-effect level (NOAEL) in dogs.

Stability test = assay type: physicochemical
Experimental: In stability test, Compound 2 was stable at 25° C. for at least 60 months. Additionally, the capsule and chewable formulations of Compound 2 were stable at 25° C. for at least 24 and 12 months, respectively.

dogs with CDS [5] = assay: Safety assessment in dogs with CDS; assay type: in vivo; conditions: 10 mg/kg oral once daily
Experimental: as §2
During this study, the safety of Compound 2 in dogs with CDS was evaluated at every visit.

APP/PS1 mice = assay: Animal model of AD (APP/PS1 mice), preliminary data; assay type: in vivo; conditions: oral, 2.5 mg/kg
G93A mice = assay: Animal model of amyotrophic lateral sclerosis (G93A mice), preliminary data; assay type: in vivo; conditions: oral, 2.5 mg/kg
[6] = biological target: T1, microsomal prostaglandin E(2) synthase-1 (mPGES-1) (Homo sapiens, UniProt O14684); conditions: previous study [20]; cited from earlier work
T1 sequence (O14684 1-152): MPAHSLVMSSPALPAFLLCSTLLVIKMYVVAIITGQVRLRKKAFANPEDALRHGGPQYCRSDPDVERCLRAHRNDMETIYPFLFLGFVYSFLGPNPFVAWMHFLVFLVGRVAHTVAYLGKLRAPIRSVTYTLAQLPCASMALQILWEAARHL

[7] = system: mouse model of amyotrophic lateral sclerosis; conditions: previous study [20]; cited from earlier work
moderate-to-severe AD = conditions: cited from earlier work
CDS dogs = conditions: literature [17-19]; effect in most dogs disappeared at 8 weeks after treatment; cited from earlier work
[8] = change vs 0 week, 10 mg/kg oral once daily, per individual dog, 10 mg/kg
[9] = 10 mg/kg oral once daily, per individual dog
[10] = change vs 0 week, per individual dog

O=C(O)c1cc(NCCc2ccc(C(F)(F)F)cc2)ccc1O [Compound 2, 2-hydroxy-5-[2-(4-trifluoromethyl-phenyl)-ethylamino]-benzoic acid]
CCDR score, 4 weeks (dogs with CDS [1]; 10 mg/kg oral once daily, 4 weeks of administration, individual dog (subject No.)): 38 and 40 and 55 and 56 and 53 and 54 and 60 and 52 and 50 and 43 and 63 and 49 and 30 | CCDR score, 8 weeks (dogs with CDS [1]; 10 mg/kg oral once daily, 8 weeks of administration, per individual dog): 34 and 46 and 41 and 51 and 54 and 27 and 50 and 53 and 59 and 43 and 30 and 42 | beneficial effects maintained after the last administration (dogs with CDS [1]; aged companion dogs with severe CDS, oral): at least 4 weeks | CCDR score change, 4 weeks (dogs with CDS [1]; [8]): −22 and −11 (3×) and −9 (2×) and −12 (2×) and −18 and −5 and −1 and −7 and −6 and −16 and −10 and −44 and −13 | CCDR score change, 8 weeks (dogs with CDS [1]; [8]): −26 and −5 and −23 and −16 and −11 and −40 and −24 and −6 and −2 and −10 and −9 and −7 and −19 and −44 and −20 | CCDR score, 12 weeks (dogs with CDS [1]; subjects 3 and 4, 12-week administration): 32 and 43 | CCDR score, 16 weeks (discontinuation) (dogs with CDS [1]; subjects 3 and 4, 4 weeks after discontinuation of 12-week administration): 38 and 44 | CCDR score, 20 weeks (discontinuation) (dogs with CDS [1]; subjects 3 and 4, 8 weeks after discontinuation of 12-week administration): 36 and 43 | CCDR score, 12 weeks (discontinuation) (dogs with CDS [1]; subjects 7, 8, 10, 11, 4 weeks after discontinuation of 8-week administration): 48 and 50 and 54 | cognitive function on the CCDR scale (dogs with CDS [1]; within 4 weeks of oral administration): near normal cognitive function | CADES score of house soiling (items 13-17), 4 weeks (dogs with CDS [2]; [9]): 5 (2×) and 9 and 16 and 14 and 22 (2×) and 11 and 3 and 19 (2×) and 17 and 10 and 25 and 18 and 4 and 0 | CADES score of house soiling (items 13-17), 8 weeks (dogs with CDS [2]; [9]): 4 (2×) and 0 (3×) and 8 and 12 and 18 and 14 and 21 and 20 and 5 and 19 and 17 and 25 | CADES score of sleep-wake cycles (items 11-12), 4 weeks (dogs with CDS [2]; [9]): 18 (4×) and 6 and 16 (2×) and 20 (3×) and 0 and 10 (2×) and 8 (2×) and 14 and 4 | CADES score of sleep-wake cycles (items 11-12), 8 weeks (dogs with CDS [2]; [9]): 10 and 0 (4×) and 14 and 12 (3×) and 20 (2×) and 16 (2×) and 8 and 6 | CADES score of social interaction (items 6-10), 4 weeks (dogs with CDS [2]; [9]): 5 (2×) and 14 (3×) and 17 (2×) and 13 (3×) and 0 and 25 and 15 and 10 and 18 and 20 and 19 | CADES score of social interaction (items 6-10), 8 weeks (dogs with CDS [2]; [9]): 15 (2×) and 5 and 10 (2×) and 14 and 11 and 19 and 4 and 24 and 16 and 18 and 9 and 13 and 3 | CADES score of spatial orientation (items 1-5), 4 weeks (dogs with CDS [2]; [9]): 5 (3×) and 20 (3×) and 18 (2×) and 16 and 17 and 24 (3×) and 25 (2×) and 13 and 21 | CADES score of spatial orientation (items 1-5), 8 weeks (dogs with CDS [2]; [9]): 9 and 15 (3×) and 13 (2×) and 17 and 25 and 0 and 24 and 20 (2×) and 22 and 23 and 4 | Total CADES score, 4 weeks (dogs with CDS [2]; [9]): 33 and 49 and 67 and 65 and 68 and 69 and 8 and 89 and 64 and 57 and 66 and 55 and 90 and 51 and 14 | Total CADES score, 8 weeks (dogs with CDS [2]; [9]): 38 and 20 and 45 and 53 and 58 and 78 and 4 and 85 and 55 and 63 and 57 and 64 and 40 and 67 and 7 | companion dogs showing improvement in spatial disorientation (dogs with CDS [2]; 4 weeks after administration, 10 of 17 dogs): 59% | companion dogs showing further improvement in social interaction at 8 weeks compared with 4 weeks (dogs with CDS [2]; 8 of 15 dogs): 53% | companion dogs significantly improved in sleep-wake cycle (item 11) (dogs with CDS [2]; 8 weeks after administration, 10 of 15 dogs): 67% | cognitive function by total CADES score (dogs with CDS [2]; 8 weeks after oral administration): significant improvement in cognitive function was observed from severe to moderate, weak, or normal level | companion dogs with beneficial effects on spatial orientation (dogs with CDS [2]; 8 weeks after oral administration, 9 of 15 dogs): 60% | CADES score of house soiling (items 13-17), change, 4 weeks (dogs with CDS [2]; [10]): 1 and −6 and −2 (2×) and −5 (2×) and −1 (2×) and −4 and −15 and 0 (5×) and −3 and −10 | CADES score of house soiling (items 13-17), change, 8 weeks (dogs with CDS [2]; [10]): 0 (3×) and −15 and −10 (2×) and −7 and −5 and −1 (2×) and −18 and 1 and −2 and −3 and −6 | CADES score of sleep-wake cycles (items 11-12), change, 4 weeks (dogs with CDS [2]; [10]): −2 (5×) and −4 and 4 (2×) and 0 (6×) and −18 and −6 and −12 | CADES score of sleep-wake cycles (items 11-12), change, 8 weeks (dogs with CDS [2]; [10]): −10 (3×) and −4 (2×) and −2 (2×) and −6 and 0 (3×) and −18 and 2 and −14 and −16 | CADES score of social interaction (items 6-10), change, 4 weeks (dogs with CDS [2]; [10]): −10 and 0 (6×) and −1 (3×) and −2 (2×) and −4 and −14 and −5 and −7 and −11 | CADES score of social interaction (items 6-10), change, 8 weeks (dogs with CDS [2]; [10]): 0 (3×) and −9 and −8 and −5 and −2 and 1 and −10 and −1 (2×) and −3 and −6 and −7 and −13 | CADES score of spatial orientation (items 1-5), change, 4 weeks (dogs with CDS [2]; [10]): −9 and −3 (2×) and −1 (3×) and −2 (2×) and 2 and −11 and 0 (4×) and 3 and 5 and −19 | CADES score of spatial orientation (items 1-5), change, 8 weeks (dogs with CDS [2]; [10]): −5 and −8 and −6 and −3 (2×) and −1 and 3 (2×) and −16 and 0 (4×) and −2 and −20 | Total CADES score change, 4 weeks (dogs with CDS [2]; [10]): −20 and −13 and −6 (2×) and −5 (2×) and −4 and −58 and 0 (2×) and −2 and −8 and 5 (2×) and −11 and −15 and −52 | Total CADES score change, 8 weeks (dogs with CDS [2]; [10]): −15 and −42 and −28 and −17 and −14 and 3 and −62 and −4 and −9 and −6 and −2 and −10 (2×) and −18 and −59 | AUC ([3]; read-out: AUC (area under the plasma level-time curve)): 9610 ± 1380 ng·h/mL | Cmax ([3]; read-out: Cmax (mean maximum plasma concentration)): 5190 ± 960 ng/mL | AUC [4]: 75100 ng·h/mL | Cmax [4]: 10600 ng/mL | NOAEL at 13 weeks (in vivo): 200 mg/kg/day | stable at 25° C. for (Stability test): at least 60 months | blood toxicity test (dogs with CDS [5]): no significant changes | treatment-related adverse events (dogs with CDS [5]): did not occur | improvement in cognitive and motor functions (APP/PS1 mice): maximally beneficial effects | improvement in cognitive and motor functions (G93A mice): maximally beneficial effects | mPGES-1 inhibition, effective concentration [6]: effective at nanomolar concentrations | motor function activity and life span [7]: increases of motor function activity and life span

CC12CC3CC(C)(C1)CC(N)(C3)C2 [memantine]
mental function and ability to perform daily activities (moderate-to-severe AD): a small improvement

C#CCN(C)[C@H](C)Cc1ccccc1 [selegiline]
cognitive function in CDS dogs (CDS dogs): improved within the first 2 weeks
